Measured values: ChEMBL document CHEMBL2440076, “New triarylpyrazoles as broad-spectrum anticancer agents: design, synthesis, and biological evaluation” (Eur J Med Chem, 2013)

Columns and labels:
Assay type in all cases: functional
Malme-3M = test: Growth inhibition of human MALME-3M cells assessed as cell growth at 3X10'-7 M after 48 hrs by sulforhodamine B assay; conditions: read-out: Activity
HCT-15 = test: Growth inhibition of human HCT15 cells assessed as cell growth at 3X10'-7 M after 48 hrs by sulforhodamine B assay; conditions: HCT-15, 48 h, read-out: Activity
HOP-92 = test: Growth inhibition of human HOP92 cells assessed as cell growth at 3X10'-7 M after 48 hrs by sulforhodamine B assay; conditions: HOP-92, 48 h, read-out: Activity
A549 = test: Growth inhibition of human A549/ATCC cells assessed as cell growth at 3X10'-7 M after 48 hrs by sulforhodamine B assay; conditions: A549, 48 h, read-out: Activity
MCF7 = test: Growth inhibition of human MCF7 cells assessed as cell growth at 3X10'-8 M after 48 hrs by sulforhodamine B assay; conditions: MCF7, 48 h, read-out: Activity
PC-3 [1] = test: Growth inhibition of human PC3 cells assessed as cell growth at 3X10'-8 M after 48 hrs by sulforhodamine B assay; conditions: PC-3, 48 h, read-out: Activity
SK-OV-3 = test: Growth inhibition of human SKOV3 cells assessed as cell growth at 3X10'-8 M after 48 hrs by sulforhodamine B assay; conditions: SK-OV-3, 48 h, read-out: Activity
BT-549 = test: Growth inhibition of human BT549 cells assessed as cell growth at 3X10'-5 M after 48 hrs by sulforhodamine B assay; conditions: BT-549, 48 h, read-out: Activity
[2] = Growth inhibition of human Hs 578T cells assessed as cell growth at 3X10'-5 M after 48 hrs by sulforhodamine B assay; conditions: read-out: Activity
IGROV-1 = test: Growth inhibition of human IGROV1 cells assessed as cell growth at 3X10'-8 M after 48 hrs by sulforhodamine B assay; conditions: IGROV-1, 48 h, read-out: Activity
[3] = Growth inhibition of human Hs 578T cells assessed as cell growth at 3X10'-9 M after 48 hrs by sulforhodamine B assay; conditions: read-out: Activity
SN12C = test: Growth inhibition of human SN12C cells assessed as cell growth at 3X10'-5 M after 48 hrs by sulforhodamine B assay; conditions: read-out: Activity
MDA-MB-231 = test: Growth inhibition of human MDA-MB-231 cells assessed as cell growth at 3X10'-9 M after 48 hrs by sulforhodamine B assay; conditions: MDA-MB-231, 48 h, read-out: Activity
PC-3 [4] = test: Growth inhibition of human PC3 cells assessed as cell growth at 3X10'-9 M after 48 hrs by sulforhodamine B assay; conditions: PC-3, 48 h, read-out: Activity
SK-MEL-28 [5] = test: Growth inhibition of human SK-MEL-28 cells assessed as cell growth at 3X10'-5 M after 48 hrs by sulforhodamine B assay; conditions: SK-MEL-28, 48 h, read-out: Activity
UACC-62 = test: Growth inhibition of human UACC62 cells assessed as cell growth at 3X10'-9 M after 48 hrs by sulforhodamine B assay; conditions: UACC-62, 48 h, read-out: Activity
UACC-257 [6] = test: Growth inhibition of human UACC257 cells assessed as cell growth at 3X10'-9 M after 48 hrs by sulforhodamine B assay; conditions: UACC-257, 48 h, read-out: Activity
SK-MEL-28 [7] = test: Growth inhibition of human SK-MEL-28 cells assessed as cell growth at 3X10'-9 M after 48 hrs by sulforhodamine B assay; conditions: SK-MEL-28, 48 h, read-out: Activity
SNB-19 = test: Growth inhibition of human SNB19 cells assessed as cell growth at 3X10'-9 M after 48 hrs by sulforhodamine B assay; conditions: SNB-19, 48 h, read-out: Activity
SF-295 = test: Growth inhibition of human SF295 cells assessed as cell growth at 3X10'-9 M after 48 hrs by sulforhodamine B assay; conditions: SF-295, 48 h, read-out: Activity
SW-620 = test: Growth inhibition of human SW620 cells assessed as cell growth at 3X10'-9 M after 48 hrs by sulforhodamine B assay; conditions: SW-620, 48 h, read-out: Activity
HT-29 = test: Growth inhibition of human HT-29 cells assessed as cell growth at 3X10'-9 M after 48 hrs by sulforhodamine B assay; conditions: HT-29, 48 h, read-out: Activity
NCI-H226 = test: Growth inhibition of human NCI-H226 cells assessed as cell growth at 3X10'-9 M after 48 hrs by sulforhodamine B assay; conditions: NCI-H226, 48 h, read-out: Activity
HOP-62 = test: Growth inhibition of human HOP62 cells assessed as cell growth at 3X10'-9 M after 48 hrs by sulforhodamine B assay; conditions: HOP-62, 48 h, read-out: Activity
K562 = test: Growth inhibition of human K562 cells assessed as cell growth at 3X10'-9 M after 48 hrs by sulforhodamine B assay; conditions: K562, 48 h, read-out: Activity
[8] = Growth inhibition of human NCI-ADR-RES cells assessed as cell growth at 3X10'-6 M after 48 hrs by sulforhodamine B assay; conditions: read-out: Activity
UACC-257 [9] = test: Growth inhibition of human UACC257 cells assessed as cell growth at 3X10'-6 M after 48 hrs by sulforhodamine B assay; conditions: UACC-257, 48 h, read-out: Activity
HCT-116 = test: Growth inhibition of human HCT116 cells assessed as cell growth at 3X10'-6 M after 48 hrs by sulforhodamine B assay; conditions: HCT-116, 48 h, read-out: Activity
[10] = Growth inhibition of human HCC2998 cells assessed as cell growth at 3X10'-6 M after 48 hrs by sulforhodamine B assay; conditions: HCC 2998, 48 h, read-out: Activity
DU-145 = test: Growth inhibition of human DU145 cells assessed as cell growth at 3X10'-7 M after 48 hrs by sulforhodamine B assay; conditions: DU-145, 48 h, read-out: Activity
A498 = test: Growth inhibition of human A498 cells assessed as cell growth at 3X10'-7 M after 48 hrs by sulforhodamine B assay; conditions: A498, 48 h, read-out: Activity

| Compound | growth at 0.3 µM (Malme-3M) [%] | growth at 0.3 µM (HCT-15) [%] | growth at 0.3 µM (HOP-92) [%] | growth at 0.3 µM (A549) [%] | growth at 0.03 µM (MCF7) [%] | growth at 0.03 µM (PC-3 [1]) [%] | growth at 0.03 µM (SK-OV-3) [%] | growth at 30 µM (BT-549) [%] | growth at 30 µM [2] [%] | growth at 0.03 µM (IGROV-1) [%] | growth at 0.003 µM [3] [%] | growth at 30 µM (SN12C) [%] | growth at 0.003 µM (MDA-MB-231) [%] | growth at 0.003 µM (PC-3 [4]) [%] | growth at 30 µM (SK-MEL-28 [5]) [%] | growth at 0.003 µM (UACC-62) [%] | growth at 0.003 µM (UACC-257 [6]) [%] | growth at 0.003 µM (SK-MEL-28 [7]) [%] | growth at 0.003 µM (SNB-19) [%] | growth at 0.003 µM (SW-620) [%] | other results |
| --- | --- | --- | --- | --- | --- | --- | --- | --- | --- | --- | --- | --- | --- | --- | --- | --- | --- | --- | --- | --- | --- |
| COc1cc(-c2nn(-c3cccc(NC(=O)Nc4ccc(Cl)c(C(F)(F)F)c4)c3)cc2-c2ccncc2)ccc1Cl | 96 | 95 | 70 | 89 | 92 | 95 | 104 | -41 | -8 | 102 | 90 | -19 | 89 | 95 | -70 | 95 | 94 | 99 | 95 | 101 | growth at 0.003 µM (SF-295): 92%; growth at 0.003 µM (HT-29): 105%; growth at 0.003 µM (NCI-H226): 99%; growth at 0.003 µM (HOP-62): 95%; growth at 0.003 µM (K562): 110%; growth at 3 µM [8]: 3%; growth at 3 µM (UACC-257 [9]): 20%; growth at 3 µM (HCT-116): 11%; growth at 3 µM [10]: 26%; growth at 0.3 µM (DU-145): 103%; growth at 0.3 µM (A498): 76% |
| COc1cc(-c2nn(-c3cccc(NC(=O)c4ccc(Cl)c(C(F)(F)F)c4)c3)cc2-c2ccncc2)ccc1Cl | 88 | 94 | 73 | 92 | 93 | 92 | 100 | 29 | 5 | 89 | 93 | 35 | 99 | 94 | 29 | 99 | 93 | 99 | 95 | 98 | growth at 0.003 µM (SF-295): 92%; growth at 0.003 µM (HT-29): 90%; growth at 0.003 µM (NCI-H226): 92%; growth at 0.003 µM (HOP-62): 98%; growth at 0.003 µM (K562): 99%; growth at 3 µM [8]: 22%; growth at 3 µM (UACC-257 [9]): 60%; growth at 3 µM (HCT-116): 44%; growth at 3 µM [10]: 63%; growth at 0.3 µM (DU-145): 98%; growth at 0.3 µM (A498): 82% |
| O=C(Nc1cccc(-n2cc(-c3ccncc3)c(-c3ccc(Cl)c(O)c3)n2)c1)Nc1ccc(Cl)c(Cl)c1 | 102 | 99 | 86 | 85 | 93 | 98 | 99 | -12 | -21 | 104 | 89 | 3 | 102 | 103 | -27 | 99 | 95 | 102 | 98 | 100 | growth at 0.003 µM (HT-29): 100%; growth at 0.003 µM (NCI-H226): 98%; growth at 0.003 µM (HOP-62): 96%; growth at 0.003 µM (K562): 100%; growth at 3 µM [8]: 46%; growth at 3 µM (UACC-257 [9]): -1%; growth at 3 µM (HCT-116): 13%; growth at 3 µM [10]: 47%; growth at 0.3 µM (DU-145): 105%; growth at 0.3 µM (A498): 94% |
| O=C(Nc1cccc(-n2cc(-c3ccncc3)c(-c3ccc(Cl)c(O)c3)n2)c1)Nc1cccc(C(F)(F)F)c1 | 87 | 96 | 65 | 93 | 96 | 96 | 96 | -18 | 11 | 98 | 93 | 16 | 103 | 95 | 3 | 98 | 96 | 103 | 94 | 98 | growth at 0.003 µM (SF-295): 94%; growth at 0.003 µM (HT-29): 99%; growth at 0.003 µM (NCI-H226): 98%; growth at 0.003 µM (HOP-62): 97%; growth at 0.003 µM (K562): 94%; growth at 3 µM [8]: 39%; growth at 3 µM (UACC-257 [9]): 60%; growth at 3 µM (HCT-116): 23%; growth at 3 µM [10]: 76%; growth at 0.3 µM (DU-145): 97%; growth at 0.3 µM (A498): 80% |
| O=C(Nc1cccc(-n2cc(-c3ccncc3)c(-c3ccc(Cl)c(O)c3)n2)c1)Nc1ccc(Cl)c(C(F)(F)F)c1 | 77 | 84 | 55 | 86 | 90 | 89 | 102 | -19 | -8 | 109 | 91 | -6 | 92 | 93 | -87 | 98 | 97 | 103 | 96 | 100 | growth at 0.003 µM (SF-295): 92%; growth at 0.003 µM (HT-29): 97%; growth at 0.003 µM (NCI-H226): 88%; growth at 0.003 µM (HOP-62): 97%; growth at 0.003 µM (K562): 99%; growth at 3 µM [8]: -7%; growth at 3 µM (UACC-257 [9]): -22%; growth at 3 µM (HCT-116): 4%; growth at 3 µM [10]: 7%; growth at 0.3 µM (DU-145): 97%; growth at 0.3 µM (A498): 95% |
